Laboratory results taken from patent US20030060511A1, “Method for treatment of ocular hypertension and glaucoma” (SUCAMPO AG, priority 2001, published 2003).

Experiments:
IOP in Normal Monkeys [1] = assay: IOP in normal monkeys after single topical application of eye drops, saline in the other eye (Example 2); type: in vivo, cynomolgus monkeys; details: 0.005% eye drops, 30 μL/eye, IOP measured up to 24 hours, compared to saline eye
Procedure: Male cynomolgus monkeys (eight monkeys, body weights 3.0-4.5 kg) were used. To the right eyes of the monkeys, 30 μL/eye of 0.005% 13,14-dihydro-15-keto-18-phenyl-19,20-dinor-PGF2α-isopropyl ester eye drops or 0.005% 13,14-dihydro-15-keto-17-phenoxy-18,19,20-trinor-PGF2α-isopropyl ester eye drops were administered, and to the left eyes, 30 μL/eye of saline was administered. IOP of the animals were determined.
(§1) The animals were retained in the sitting position under systemic anesthesia with intramuscular injection of ketamine hydrochloride (Ketalar® 50, Sankyo Co. Ltd.) 7.5-10 mg/kg and their ocular surfaces were anesthetized with 0.4% oxybuprocaine hydrochloride (Benoxil® 0.4% solution, Santen Pharmaceuticals Co., Ltd.). After that, the IOP was measured with a pneumatonometer (Model 30 Classic, Mentor O & O, Inc.). The IOPs were measured before (0 hour) and at 2, 4, 8, 12 and 24 hours after the administration of test substances.
Changes of the IOP from that of time 0 (ΔIOP) obtained in the each test eyes ([…] eyes) were compared to those obtained in the vehicle administrated eyes (control group) at each measurement times.

IOP in Normal Monkeys [2] = assay: IOP in normal monkeys after single topical application of eye drops (Example 1); type: in vivo, cynomolgus monkeys; details: for IOP lowering (change in IOP from time 0, ΔIOP): single administration, significant vs vehicle control (Dunnett's test)
Procedure: Male cynomolgus monkeys (eight monkeys, body weights 3.0-4.5 kg) were used. To the right eyes of the monkeys, 30 μL/eye of 0.005% 13,14-dihydro-15-keto-17-phenyl-18,19,20-trinor-PGF2α-isopropyl ester eye drops, 0.005% 13,14-dihydro-17-phenyl-18,19,20-trinor-PGF2α-isopropyl ester (latanoprost) eye drops or the vehicle was administered once with an interval of at least seven days, and the IOPs in the respective animals was measured.
as §1, with “Inc.). The IOP was measured before” for “Inc.). The IOPs were measured before”, “administration of the test substances.” for “administration of test substances.”
Changes of the IOP from that of time 0 (ΔIOP) obtained in the each test groups were compared to that obtained in the vehicle-administered control group at each measurement times. Statistical analysis was made with the Dunnett's multiple comparison test. Critical rates less than 5% were evaluated to be statistically significant.

FP receptor = FP receptor (Homo sapiens, UniProt P43088); details: background art; cited from earlier work
Chain of FP receptor (P43088 whole entry): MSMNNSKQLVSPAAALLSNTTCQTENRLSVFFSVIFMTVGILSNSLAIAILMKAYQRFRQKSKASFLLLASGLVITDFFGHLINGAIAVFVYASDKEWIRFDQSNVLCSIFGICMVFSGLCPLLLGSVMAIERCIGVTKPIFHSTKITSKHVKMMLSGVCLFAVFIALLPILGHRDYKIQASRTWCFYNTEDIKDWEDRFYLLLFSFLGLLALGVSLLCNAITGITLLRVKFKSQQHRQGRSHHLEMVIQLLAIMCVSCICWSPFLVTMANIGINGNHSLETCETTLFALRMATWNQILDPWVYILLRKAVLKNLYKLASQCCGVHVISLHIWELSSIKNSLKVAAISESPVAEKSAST

Compound | Duration of IOP lowering by single administration (IOP in Normal Monkeys [1]) | Affinity with / effect on FP receptor (FP receptor) | also measured
CC(C)OC(=O)CCC/C=C\CC1C(O)CC(O)C1CCC(=O)CCOc1ccccc1 (stereo not drawn) [13,14-dihydro-15-keto-17-phenoxy-18,19,20-trinor-PGF2α-isopropyl ester] | can lower the IOP and keep the low IOP throughout a day | – | –
CC(C)OC(=O)CCC/C=C\C[C@@H]1[C@@H](CCC(=O)CCc2ccccc2)[C@H](O)C[C@@H]1O [13,14-dihydro-15-keto-17-phenyl-18,19,20-trinor-PGF2α-isopropyl ester] | – | – | Difference of ΔIOPs versus latanoprost group (IOP in Normal Monkeys [2]; 0.005% eye drops each, at any time point of the measurement (2-24 hours)): no significant difference; Duration of IOP lowering by single administration (IOP in Normal Monkeys [2]; 0.005% eye drops, 30 μL/eye, IOP measured up to 24 hours): can lower the IOP and keep the low IOP throughout the day; IOP lowering (change in IOP from time 0, ΔIOP) (IOP in Normal Monkeys [2]; 0.005% eye drops, 30 μL/eye, 4 hours after administration): 2.3±0.4 mmHg; IOP lowering (change in IOP from time 0, ΔIOP) (IOP in Normal Monkeys [2]; 0.005% eye drops, 30 μL/eye, 8 hours after administration): 2.1±0.4 mmHg; IOP lowering (change in IOP from time 0, ΔIOP) (IOP in Normal Monkeys [2]; 0.005% eye drops, 30 μL/eye, 12 hours after administration): 2.4±0.5 mmHg
CC(C)OC(=O)CCC/C=C\CC1C(O)CC(O)C1CCC(=O)CCCc1ccccc1 (stereo not drawn) [13,14-dihydro-15-keto-18-phenyl-19,20-dinor-PGF2α-isopropyl ester] | can lower the IOP and keep the low IOP throughout a day | – | –
CCCCC[C@H](O)/C=C/[C@@H]1[C@@H](C/C=C\CCCC(=O)O)[C@@H](O)C[C@H]1O [PGF2α] | – | strong affinity | –
CCCCCCCC(=O)CC[C@@H]1[C@@H](C/C=C\CCCC(=O)OC(C)C)[C@@H](O)C[C@H]1O [isopropyl unoprostone, 13,14-dihydro-15-keto-20-ethyl-PGF2α-isopropyl ester] | – | substantially no effect | –
CC(C)OC(=O)CCC/C=C\C[C@@H]1[C@@H](CC[C@@H](O)CCc2ccccc2)[C@H](O)C[C@@H]1O [latanoprost, 13,14-dihydro-17-phenyl-18,19,20-trinor-PGF2α-isopropyl ester] | – | strong affinity | –
